Test results as given in PMC5175396, “Cytotoxicity of Plumbagin, Rapanone and 12 other naturally occurring Quinones from Kenyan Flora towards human carcinoma cells” (BMC Pharmacology & Toxicology, 2016).

Experiments:
Type in all cases: cell-based, human
MCF-7 cells [1] = assay: Mitochondrial membrane potential (MMP) analysis, JC-1 staining, flow cytometry; conditions: IC50 (C3), 72 h, control 4.3%
Procedure: The MMP was analyzed in MCF-7 cells by 5,5′,6,6′-tetrachloro-1,1′,3,3′-tetraethylbenzimidazolylcarbocyanine iodide) (JC-1; Biomol, Hamburg, Germany) staining as previously reported. […] Subsequently, cells were measured in a BD FACS Aria I Cell Sorter Flow Cytometer (Becton-Dickinson, Germany). The JC-1 signal was measured at an excitation of 561 nm (150 mW) and detected using a 586/15 nm band-pass filter. The signal was analyzed at 640 nm excitation (40 mW) and detected using a 730/45 nm bandpass filter. Cytographs were analyzed using BD FACSDiva™ Flow Cytometry Software Version 6.1.2 (Becton-Dickinson). All experiments were performed at least in triplicate.

MCF-7 cells [2] = assay: Measurement of reactive oxygen species (ROS), DCFH-DA; conditions: at IC50, 24 h
Procedure: This is a cell-based assay for measuring hydroxyl, peroxyl, or other reactive oxygen species activity within a cell. The assay employs the cell-permeable fluorogenic probe 2′,7′-dichlorodihydrofluorescin diacetate (DCFH-DA). DCFH-DA is diffused into cells and is deacetylated by cellular esterases to non-fluorescent 2′,7′-dichlorodihydrofluorescin (DCFH), which is rapidly oxidized to highly fluorescent 2′,7′-dichlorofluorescein (DCF) by ROS. […] After addition of 100 μL 1× DCFH-DA/DMEM solution to cells and incubation at 37 °C for 30–60 min, the fluorescence was measured using SpectraMax® M5 Microplate Reader (Molecular Devices, Biberach, Germany) at 480/530 nm. All experiments were performed at least in triplicate.

[3] = test system: six tested cancer cell lines (A549, SPC212, DLD-1, Caco-2, MCF-7, HepG2); assay: Neutral red uptake assay, statements over the six tested cancer cell lines
Description: Six human cancer cell lines and one normal cell line were used in this study. They included A549 human non-small cell lung cancer (NSCLC) cell line, obtained from the Institute for Fermentation, Osaka (IFO, Japan) and provided by Prof. Dr. Tansu Koparal (Anadolu University, Eskisehir, Turkey), SPC212 human mesothelioma cell line obtained from American Type Culture Collection (ATCC) and provided by Dr. Asuman Demiroğlu Zergeroğlu (Gebze Technical University, Kocaeli, Turkey), DLD-1 colorectal adenocarcinoma cell lines obtained from ATCC (CCL-221), Caco2 colorectal adenocarcinoma cells (ATCC, HTB-37) obtained from the ŞAP Institute of Turkey (Ankara), HepG2 hepatocarcinoma cells (ATCC, HB-8065) and MCF-7 breast adenocarcinoma cells (ATCC, HTB-22) were provided by Prof. Dr. Tansu Koparal (Anadolu University, Eskisehir, Turkey). The normal CRL2120 human skin fibroblasts were obtained from ATCC [CCD1094Sk (ATCC, CRL-2120)]. The cells were maintained as a monolayer in DMEM medium (Sigma-aldrich, Munich, Germany) medium supplemented with 10% fetal calf serum and 1% penicillin (100 U/mL)-streptomycin (100 μg/mL) in a humidified 5% CO2 atmosphere at 37 °C.
The cytotoxicity of samples was performed by NR uptake assay as previously described. This method is based on the ability of viable cells to incorporate and bind the supravital dye NR in the lysosomes. The procedure is cheaper and more sensitive than other cytotoxicity tests. […] Briefly, cells were detached by treatment with 0.25% trypsin/EDTA (Invitrogen) and an aliquot of 1 × 10^4 cells was placed in each well of a 96-well cell culture plate […]. The cells were allowed to attach overnight and subsequently treated with different concentrations of the 14 compounds. Each of the studied samples was immediately added in varying concentrations in additional 100 μL of culture medium to obtain a total volume of […]/well. After 72 h incubation in humidified 5% CO2 atmosphere at 37 °C, the medium was removed and 200 μL fresh medium containing 50 μg/mL NR was added to each well and incubation continued for an additional 3 h at 37 °C in 5% CO2 atmosphere. The dye medium was then removed and each well was then washed rapidly with 200 μL phosphate buffer saline (PBS) followed by addition of 200 μL of acetic acid-water-ethanol in water (1:49:50). The plates were kept for 15 min at room temperature to extract the dye and then shaken for a few minutes on a GFL 3012 shaker (Gesellschaft für Labortechnik mbH, Burgwedel, Germany). Absorbance was measured on ELx 808 Ultra Microplate Reader (Biotek) equipped with a 540 nm filter. Each assay was done at least three times, with three replicates each. The viability was evaluated based on a comparison with untreated cells. The IC50 values represent the sample’s concentrations required to inhibit 50% of cell proliferation and were calculated from a calibration curve by linear regression using Microsoft Excel.

caspase 9 in MCF-7 cells = assay: Caspase-Glo 9 assay; conditions: IC50 and 2-fold IC50, 6 h (data not shown)
Procedure: Caspases activity in MCF-7 cells was detected using Caspase-Glo 3/7 and Caspase-Glo 9 Assay kits (Promega, Mannheim, Germany) as previously reported. […] Luminescence was measured using an BioTek Synergy™ HT multi-detection microplate reader. Caspase activity was expressed as percentage of the untreated control.

MCF-7 cells [4] = assay: Flow cytometry cell cycle analysis and detection of apoptotic cells; conditions: for Sub-G0/G1 (apoptotic) cells, % of cells: non-treated cells 3.1%; for cell cycle arrest: ¼ × IC50 to IC50, 72 h
Procedure: The cell-cycle analysis was performed by flow cytometry using BD cycletest^TM Plus DNA Kit Assay (BD Biosciences, San Jose, USA). The BD Cycletest™ Plus DNA kit provides a set of reagents for isolating and staining cell nuclei. Flow cytometric analysis of differentially stained cells is used to estimate the DNA index (DI) and cell-cycle phase distributions. Briefly, MCF-7 cells (3 mL, 1 × 10^5 cells/mL) were seeded into each well of 6-well plates and allowed to attach for 24 h. […] The untreated cells (control) were also included in the assay. They were further trypsinized and suspended in 1 mL PBS, then centrifuged at 400 g for 5 min at room temperature (RT). The cells were further processed according to the manufacturer protocol: addition of 250 μL of solution A (trypsin buffer), 10 min incubation at RT followed by the addition of 200 μL of solution B (trypsin inhibitor and RNAse buffer), 10 min incubation at RT followed by the addition of 200 μL of solution C (2–8 °C) (propidium iodide stain solution), 10 min on ice. The cells were further measured on a BD FACS Aria I Cell Sorter Flow Cytometer (Becton-Dickinson, Germany). For each sample, 10^4 cells were counted. For PI excitation, an argon-ion laser emitting at 488 nm was used. Cytographs were analyzed using BD FACSDiva™ Flow Cytometry Software Version 6.1.2 (Becton-Dickinson).

Row | SMILES | MMP, gate P2 (loss / depletion of MMP) (MCF-7 cells [1]) [%] | increase in ROS levels as compared with non-treated cells (MCF-7 cells [2]) | selectivity indexes (CRL2120 vs carcinoma cells), lower bound over the cancer cell lines ([3]; IC50 CRL2120 / IC50 cancer cell line) | activity of caspase 9 (caspase 9 in MCF-7 cells) | Sub-G0/G1 (apoptotic) cells, % of cells (MCF-7 cells [4]; 1/4xIC50, 72 h) [%] | Sub-G0/G1 (apoptotic) cells, % of cells (MCF-7 cells [4]; IC50, 72 h) [%] | cell cycle arrest (MCF-7 cells [4]) | IC50 ([3]; Homo sapiens, bound valid for all six cancer cell lines, neutral red assay) [µM]
1 | CC1=CC(=O)c2c(O)cccc2C1=O [Compound 4, 5-hydroxy-2-methyl-1,4-naphthalenedione] | 12.2 | more than 3 fold | > 59 | no modification | 10.4 | 20.4 | cell cycle arrest between G0/G1 and S phases | 
2 | CCCCCCCCCCCCCC1=C(O)C(=O)C=C(O)C1=O [Compound 9, 2,5-dihydroxy-3-tridecyl-2,5-cyclohexadiene-1,4-dione] | 88.1 | less than 2 fold |  | no modification | 34.8 | 43.2 | cell cycle arrest between G0/G1 and S phases | < 100
